Legend:
[1] = Blood glucose level in HFD-induced, STZ-injected type 2 diabetic rats; format: in vivo, Sprague-Dawley rats; settings: STZ-injected HFD-fed rats, 2 mg/kg/3 days i.p. for 30 days, compared to STZ+vehicle
Protocol: The Sprague-Dawley rats were allocated to two dietary regimens by feeding either normal or HFD ad libitum, for the initial period of 2 weeks. After 2 weeks of dietary manipulation, the group of rats fed HFD were injected intraperitoneally (i.p.) with a low dose of STZ (35 mg/kg b.w.), while the respective control rats were given vehicle citrate buffer (pH 4.5) in a dose volume of 1 mL/kg, i.p. Seven days after STZ injection, rats were screened for blood glucose levels. Overnight fasted (10-12 hours) animals were given glucose (3 g/kg b.w.) by gastric intubation. After 2 hours of oral administration, blood samples were taken from lateral tail vein, left to coagulate and centrifuged; then serum glucose concentration was measured. Rats having serum glucose ≥200 mg/dL after 2 hours of glucose intake were considered diabetic and selected for further pharmacological studies. The rats were allowed to continue to feed on their respective diets until the end of the study (16). […]
Blood Glucose Test Strips and Blood Glucose Monitoring System were used to determine whole blood glucose levels on a drop of tail blood collected between 10 am and midday. Glucose concentration was determined colorimetrically using a glucose oxidase/peroxidase reagent kit. Samples were incubated with 100 μl of assay reagent at 37° C. for 30 min and measured at 540 nm. […]

[2] = system: caspase-3 activity in HUVECs; format: cell-based, human; settings: compared to control cells
Protocol: Cell apoptosis was detected by using commercial terminal deoxynucleotidyl transferase-dUTP nick end labeling (TUNEL) and caspase-3 activity kits, i.e., Apo-BrdU in Situ DNA Fragmentation Assay Kit (BioVision) and NucView™ 488 Caspase-3 Enzyme Substrate (Biotium). In brief, after incubation with M199 media in the presence or absence of […] various PLY peptides, at 37° C., 5% CO2 for 1 hour, HUVECs were washed with PBS and fixed with fixation buffer on ice for 20 min. Cells were then soaked in 70% alcohol for 1 hr. After 2 times of wash by washing buffer, cells were incubated in DNA labeling solution for 60 min at 37° C. Cells were then treated with rinse buffer and incubated with antibody buffer for 30 min at room temperature. The cell nuclei were stained with propidium iodide for 30 min. Samples were observed by fluorescent microscopeand photographed charge-coupled device (CCD) camera.
As to caspase-3 activity assay, after variant peptide treatments, HUVECs were washed by PBS. Cells were then reacted with Caspase-3 Enzyme Substrate 1 mM for 30 min at room temperature. Cells were then observed by fluorescent microscopeand photographed CCD camera.

TLR4 = experiment: LPS-induced PMN transendothelial migration, PMNs from wild type C3H/HeN mice; format: cell-based
Protocol: To obtain mice neutrophils from TLR4-deficient [TLR4(−/−)] C3H/HeJ mice and wild type C3H/HeN mice, inflammation was induced by 0.1 ml of uric acid solution into the peritoneal cavity of the mouse. The uric acid solution (noncrystalline form) was prepared by mixing with saline (10% [wt/vol]) and sonicated for 10 min. Immediately before inoculation, the milky white precipitated uric acid solution was shaken vigorously. Peritoneal exudate cells were harvested 4, 18, or 24 h after injection by two lavages of the peritoneal cavity with 5 ml of cold phosphate-buffered saline (PBS; total volume, 10 ml). Uric acid-induced peritoneal cells (UAPMN) were washed by centrifugation at 200×g for 10 min at 4° C. Followed by hypotonic lysis to eliminate red blood cells, centrifugation and an additional wash were performed. The cells were then resuspended in Krebs-Ringer phosphate buffer (KRG; pH 7.3). The numbers and populations of peritoneal exudate cells were determined by staining the nuclei with Turk reagent and by cytospin centrifugation followed by May-Grünwald-Giemsa staining, respectively. Uric acid injection into the peritoneal cavity gave a yield of 1 to 2×10^7 cells/mouse depending on time of incubation (4 hr). The levels of purity of the uric acid-induced PMN were 95% after 4 h postinjection. Viability of the isolated neutrophils exceeded 95% as determined by trypan blue exclusion. The PMN from TLR4(−/−) C3H/HeJ mice and wild type C3H/HeN mice were then used for PMN transmigration Assay.
Neutrophils from human were isolated blood that was drawn in a syringe containing preservative-free heparin (20 U/ml final), and mixed with an equal volume of PBS containing 3% dextran and then incubated for 20 min at room temperature. The leukocyte-rich plasma (upper layer) was collected and pellet cells was obtained from the plasma by centrifuge and resuspended in 0.9% NaCl. Layer 10 ml Ficoll-Hypaque solution beneath the cell suspension. After centrifuge 1500×g for 20 min, aspirate the Ficoll-Hypaque layer, leaving the neutrophil/RBC pellet. Cells were subjected to hypotonic lysis by resuspending each neutrophil/RBC pellet in cold 0.2% NaCl for 30 sec. At the end of this period, restore isotonicity by adding ice-cold 1.6% NaCl. After centrifuge, resuspend cells in ice-cold PBS/glucose buffer. Neutrophils from mice were isolated from the peritoneum as previously described. See, e.g., Rabes et al., Curr Top Microbiol Immunol 397:215-227 (2016). The cell concentration was adjusted to […]. The viability of the isolated neutrophils exceeded 95%, as determined by Trypan blue exclusion.
Transendothelial migration was performed by using a Transwell system. Transwell filters were pre-seeded with HUVEC monolayers for 24 hrs and transferred to clean 24-well plates. HUVECs were washed twice with DPBS, 500 μl of ECM was added to the Transwell filter compartment and 10^6 neutrophils were then added in upper chamber. Transendothelial migration was stimulated by addition of LPS to the lower chamber to a final concentration of 1 μg/ml. Cells were incubated with the endothelial cells for 1 h at 37° C. At the conclusion of the incubation, migrated cells were collected from the lower chamber and counted in a hemacytometer in triplicate. Percent PMN transmigration was calculated by dividing the number of PMN recovered from the lower chamber by the number of PMN initially added.
PMN transendothelial migration plays an important role in early stage of atherogenesis. […].

Sequence: QDLTAHFTTSIPLKGNVRNLSVKIRECTGLAWEWWRTVYEKTDLPLVRKRTISIWGTTLYPQVEDKVEND [C70PLY4]
- blood glucose levels [1]: decreased blood glucose
- apoptotic potential, caspase-3 activity assay [2]: no apoptotic potential
- PMNs migration, WT mice model (FIG. 10) (TLR4; PMNs from C3H/HeN mice, LPS 1 μg/ml, HUVEC monolayer Transwell): significant inhibition of PMNs cell migration
- LPS induced PMN migration (FIGS. 11-12) (TLR4; WT mice model, LPS-induced): inhibitory effects

Reference: patent US10287328B2, “Treatment of diabetes, toll-like receptor 4 modulators and methods for using the same” (KeMyth Biotech Co., Ltd., priority 2016, dated 2019)
